Results as given in patent US20250177364A1, “COMBINATION THERAPIES FOR BREAST CANCER” (Genentech, Inc., priority 2022, published 2025).

Tests used:
[1] = system: ER (ligand-binding domain of wild-type and mutant ER); details: cited from earlier work
ZR-75-30 cells = test: Anti-proliferative activity, growth-rate (GR) inhibition method, CyQUANT; assay type: cell-based; details: 6 days after drug treatment, control GR=1, giredestrant 0.3 μM, trastuzumab and pertuzumab 30 μg/ml each
Protocol: FIG. 3 depicts in vitro anti-proliferative activity of ER inhibition by giredestrant, and/or HER2 inhibition by the combination of trastuzumab and pertuzumab, assessed using the growth rate (GR) method in Example 1. Growth rate (GR) under control conditions is set to 1; lower growth rates equate to a greater anti-proliferative effect. Individual points reflect GR values at 0.3 μM giredestrant, and at […] trastuzumab and pertuzumab.
Materials and Methods: ER+/HER2+ cell lines UACC-812, HCC1419 and ZR-75-30 cells were plated in 50 μL culture media in 384-well plates. Cells were incubated in humidified incubator overnight (37 degree, 5% CO2). Test materials were dispensed into 384-well plate on day 1; giredestrant was evaluated as a 9-point dose response (3-fold dose dilutions from a maximum concentration of 300 nM), and traztuzumab and pertuzumab were evaluated as a fixed dose at 30 μg/ml each. Fluorescence-based cell proliferation (CyQUANT®; ThermoFisher Scientific, Cat #C7026) readings were taken at day 1 to establish a baseline, and at 6 days following drug treatment. Analysis of the drug response was performed using the growth-rate (GR) inhibition method to avoid biases between slow and fast-growing lines (Hafner et al., Nat Methods 2016 June; 13 (6): 521-7)). […]

[2] = system: ER-positive, HER2-negative ABC; details: 30 mg daily; previously treated patients; cited from earlier work
[3] = system: ER-positive, HER2-negative EBC; details: neoadjuvant; cited from earlier work
HCC1419 cells = test: Anti-proliferative activity, growth-rate (GR) inhibition method, CyQUANT; assay type: cell-based; details: 6 days after drug treatment, control GR=1, giredestrant 0.3 μM, trastuzumab and pertuzumab 30 μg/ml each
Protocol: (§1) FIG. 3 depicts in vitro anti-proliferative activity of ER inhibition by giredestrant, and/or HER2 inhibition by the combination of trastuzumab and pertuzumab, assessed using the growth rate (GR) method in Example 1. Growth rate (GR) under control conditions is set to 1; lower growth rates equate to a greater anti-proliferative effect. Individual points reflect GR values at 0.3 μM giredestrant, and at […] trastuzumab and pertuzumab. Materials and Methods: ER+/HER2+ cell lines UACC-812, HCC1419 and ZR-75-30 cells were plated in 50 μL culture media in 384-well plates. Cells were incubated in humidified incubator overnight (37 degree, 5% CO2). Test materials were dispensed into 384-well plate on day 1; giredestrant was evaluated as a 9-point dose response (3-fold dose dilutions from a maximum concentration of 300 nM), and traztuzumab and pertuzumab were evaluated as a fixed dose at 30 μg/ml each. Fluorescence-based cell proliferation (CyQUANT®; ThermoFisher Scientific, Cat #C7026) readings were taken at day 1 to establish a baseline, and at 6 days following drug treatment. Analysis of the drug response was performed using the growth-rate (GR) inhibition method to avoid biases between slow and fast-growing lines (Hafner et al., Nat Methods 2016 June; 13 (6): 521-7)).

UACC-812 cells = test: as above; assay type: cell-based; details: 6 days after drug treatment, control GR=1, giredestrant 0.3 μM, trastuzumab and pertuzumab 30 μg/ml each
Protocol: as §1

[4] = system: ER-positive BC cell lines; details: multiple ER-positive BC cell lines, including cells with ER mutations; cited from earlier work

C[C@@H]1Cc2c([nH]c3ccccc23)[C@@H](c2c(F)cc(NC3CN(CCCF)C3)cc2F)N1CC(F)(F)CO [giredestrant, 3-((1R,3R)-1-(2,6-difluoro-4-((1-(3-fluoropropyl)azetidin-3-yl)amino)phenyl)-3-methyl-1,3,4,9-tetrahydro-2H-pyrido[3,4-b]indol-2-yl)-2,2-difluoropropan-1-ol]
Potency compared to fulvestrant, tamoxifen and other oral SERDs ([1]; Liang et al.): higher potency
Potency of competitive binding to the ER ([1]; competes with estrogens): low nanomolar potency
Growth rate (GR) value (ZR-75-30 cells): > 0.75
Clinical activity [2]: promising signs of clinical activity
Safety [2]: safe
Ki67 suppression and complete cell cycle arrest versus anastrozole [3]: superior to anastrozole
Growth rate (GR) value (HCC1419 cells): < 0.5
Growth rate (GR) value (UACC-812 cells): < 0.5
Inhibition of proliferation [4]: potently inhibits
